Where “and” joins values, the source holds several entries; their conditions need not be identical. Equal entries are not always repeated. Where two headings read alike, the source gives them in different places.
Columns and labels:
[1] = molecular target: HIV-1 reverse transcriptase (RT)-associated RNase H (Human immunodeficiency virus type 1 group M subtype B, UniProt P03366); test: HIV-1 RT-associated RNase H inhibition assay; assay type: biochemical; conditions: for IC50 / IC50 HIV-1 RNase H: concentration required to reduce HIV-1 RT-associated RNase H activity by 50%, mean of three independent experiments ± SD; for Percentage of residual enzymatic activity at the highest concentration tested: HIV-1 RNase H
SARS-CoV-2 WA1/2020 = test: Plaque reduction assay in Vero E6 ACE2 cells; assay type: cell-based; conditions: for EC50 fold higher compared to 1c: plaque reduction assay
[2] = molecular target: SARS-CoV-2 nsp14/nsp10 ExoN (Severe acute respiratory syndrome coronavirus 2, UniProt P0DTD1); test: SARS-CoV-2 nsp14 exonuclease (ExoN) activity assay, HPLC, RNA22 substrate; assay type: biochemical; conditions: for inhibition at 100 µM: read-out: Inhibition of ExoN activity
[3] = test system: SARS-CoV-2 WA1/2020 strain; assay type: cell-based
[4] = molecular target: full-length SARS-CoV-2 nsp14 MTase (Severe acute respiratory syndrome coronavirus 2, UniProt P0DTD1); test: SARS-CoV-2 nsp14 N7-methyltransferase activity assay; assay type: biochemical; conditions: absence vs presence of inhibitor; GpppA substrate, [3H]-SAM

SMILES: O=C(N/N=C/c1ccc(O)c([N+](=O)[O-])c1)c1cc2ccccc2cc1O [1a, (E)-N’-(4-Hydroxy-3-nitrobenzylidene)-3-hydroxy-2-naphthohydrazide]
- IC50 ([1]; read-out: IC50 HIV-1 RNase H): 69.6 ± 8.46 µM

SMILES: COc1cc(/C=N/NC(=O)c2cc3ccccc3cc2O)cc([N+](=O)[O-])c1O [1b, (E)-N′-(4-Hydroxy-5-methoxy-3-nitrobenzylidene)-3-hydroxy-2-naphthohydrazide]
- IC50 ([1]; read-out: IC50 HIV-1 RNase H): 7 to 8 µM and 7.16 µM

SMILES: O=C(N/N=C/c1cc(O)c(O)c([N+](=O)[O-])c1)c1cc2ccccc2cc1O [1c, (E)-N′-(3,4-Dihydroxy-5-nitrobenzylidene)-3-hydroxy-2-naphthohydrazide]
- EC50 (SARS-CoV-2 WA1/2020; concentration required to reduce plaque number by 50%, 3 d, mean and SD of three independent experiments, read-out: EC50 anti-SARS-CoV-2 activity by plaque reduction assay): 10.23 ± 0.01 µM
- IC50 ([2]; RNA22 substrate, HPLC): 2.2 µM
- Inhibition of ExoN activity ([2]; at 100 µM): complete inhibition
- Effect on virus titers ([3]; 12.5 µM, A549 ACE2+ cells, MOI 0.05): no measurable effect
- Reduction in virus titers ([3]; 25 µM, 24 h post-infection): 6.4 fold
- Reduction in virus titers ([3]; 25 µM, 48 h post-infection): 7.8 fold
- Reduction in virus titers ([3]; 50 µM, 24 h post-infection): 78.5 fold
- Reduction in virus titers ([3]; 50 µM, 48 h post-infection): 48.9 fold
- IC50 ([1]; IC50 HIV-1 RNase H): 0.57 ± 0.04 µM
- Effect on nsp14 MTase activity (tritium incorporation) [4]: no significant differences

SMILES: O=C(N/N=C/c1cc(O)ccc1O)c1cc2ccccc2cc1O [1d]
- IC50 ([1]; read-out: IC50 HIV-1 RNase H): 35.9 ± 8.6 µM

SMILES: COc1ccc(/C=N/NC(=O)c2cc3ccccc3cc2O)c(O)c1O [1e, (E)-N’-(2,3-Dihydroxy-4-methoxybenzylidene)-3-hydroxy-2-naphthohydrazide]
- IC50 ([1]; read-out: IC50 HIV-1 RNase H): 1.02 ± 0.15 µM

SMILES: O=C(N/N=C/c1ccc(O)c(O)c1O)c1cc2ccccc2cc1O [1f]
- IC50 ([1]; read-out: IC50 HIV-1 RNase H): 0.93 ± 0.24 µM

SMILES: COc1ccc(/C=N/NC(=O)c2cc3ccccc3cc2O)cc1O [1g]
- Percentage of residual enzymatic activity at the highest concentration tested [1]: 84%
- IC50 ([1]; read-out: IC50 HIV-1 RNase H): > 100 µM

SMILES: O=C(N/N=C/c1ccc(O)cc1O)c1cc2ccccc2cc1O [1h]
- IC50 ([1]; read-out: IC50 HIV-1 RNase H): 36.4 ± 10.5 µM

SMILES: CN(C)c1ccc(/C=N/NC(=O)c2cc3ccccc3cc2O)cc1 [1i]
- IC50 ([1]; read-out: IC50 HIV-1 RNase H): 27.5 ± 2.65 µM

SMILES: CC(=O)Nc1ccc(/C=N/NC(=O)c2cc3ccccc3cc2O)cc1 [1j]
- Percentage of residual enzymatic activity at the highest concentration tested [1]: 91%
- IC50 HIV-1 RNase H [1]: inactive
- IC50 ([1]; read-out: IC50 HIV-1 RNase H): > 100 µM

SMILES: CCN(CC)c1ccc(/C=N/NC(=O)c2cc3ccccc3cc2O)cc1 [1k]
- IC50 ([1]; read-out: IC50 HIV-1 RNase H): 7 to 8 µM and 7.94 µM

SMILES: CN1CCN(c2ccc(/C=N/NC(=O)c3cc4ccccc4cc3O)cc2)CC1 [1l, (E)-N’-[4-(N-Methylpiperazinyl)benzylidene]-3-hydroxy-2-naphthohydrazide]
- Percentage of residual enzymatic activity at the highest concentration tested [1]: 70%
- IC50 HIV-1 RNase H [1]: inactive
- IC50 ([1]; read-out: IC50 HIV-1 RNase H): > 100 µM
- melting point: 256 to 257 °C

SMILES: O=C(N/N=C/c1cc(O)c(O)c([N+](=O)[O-])c1)c1ccccc1O [2a, (E)-N′-(3,4-Dihydroxy-5-nitrobenzylidene)-2-hydroxybenzohydrazide]
- EC50 fold higher compared to 1c (SARS-CoV-2 WA1/2020): 4.3 fold
- inhibition at 100 µM [2]: ~65%
- IC50 ([1]; IC50 HIV-1 RNase H): 14 ± 0.97 µM
- melting point: 275 °C (dec.)

SMILES: O=C(N/N=C/c1cc(O)c(O)c([N+](=O)[O-])c1)c1cccc(F)c1 [2b, (E)-N′-(3,4-Dihydroxy-5-nitrobenzylidene)-3-fluorobenzohydrazide]
- EC50 fold higher compared to 1c (SARS-CoV-2 WA1/2020): 3.4 fold
- inhibition at 100 µM [2]: ~53%
- IC50 ([1]; IC50 HIV-1 RNase H): 15.2 ± 1.35 µM
- melting point: 251 to 252 °C (dec.)

SMILES: O=C(N/N=C/c1cc(O)c(O)c([N+](=O)[O-])c1)c1cccnc1 [2c, (E)-N′-(3,4-Dihydroxy-5-nitrobenzylidene)-nicotinoylhydrazide]
- EC50 anti-SARS-CoV-2 activity by plaque reduction assay (SARS-CoV-2 WA1/2020; concentration required to reduce plaque number by 50%, 3 d, mean and SD of three independent experiments): inactive
- inhibition at 100 µM [2]: ~37%
- IC50 ([1]; IC50 HIV-1 RNase H): 24.7 ± 3.89 µM
- melting point: 250 to 251 °C (dec.)

SMILES: O=C(N/N=C/c1ccc(O)c(O)c1)c1cc2ccccc2cc1O [Dynasore, (E)-N′-(3,4-dihydroxybenzylidene)-3-hydroxy-2-naphthohydrazide, reference compound]
- IC50 ([1]; read-out: IC50 HIV-1 RNase H): 3.1 ± 0.52 µM

SMILES: CCOC(=O)C(=O)CC(=O)/C=C/c1cccn1Cc1ccc(F)cc1 [RDS1643, reference compound]
- IC50 ([1]; read-out: IC50 HIV-1 RNase H): 10.8 ± 5.2 µM

Reference: publication PMC10385162 (Viruses, 2023)
